Data on seven substances can be found in patent publication US12661388B2, “Assessing and treating acute decompensated heart failure” (Mayo Foundation for Medical Education and Research, priority 2020, dated 2026).

One assay deals with T1, human GC-A (Homo sapiens, UniProt P16066).
T1 construct: host or cells: HEK293
T1 sequence (P16066 33-1061): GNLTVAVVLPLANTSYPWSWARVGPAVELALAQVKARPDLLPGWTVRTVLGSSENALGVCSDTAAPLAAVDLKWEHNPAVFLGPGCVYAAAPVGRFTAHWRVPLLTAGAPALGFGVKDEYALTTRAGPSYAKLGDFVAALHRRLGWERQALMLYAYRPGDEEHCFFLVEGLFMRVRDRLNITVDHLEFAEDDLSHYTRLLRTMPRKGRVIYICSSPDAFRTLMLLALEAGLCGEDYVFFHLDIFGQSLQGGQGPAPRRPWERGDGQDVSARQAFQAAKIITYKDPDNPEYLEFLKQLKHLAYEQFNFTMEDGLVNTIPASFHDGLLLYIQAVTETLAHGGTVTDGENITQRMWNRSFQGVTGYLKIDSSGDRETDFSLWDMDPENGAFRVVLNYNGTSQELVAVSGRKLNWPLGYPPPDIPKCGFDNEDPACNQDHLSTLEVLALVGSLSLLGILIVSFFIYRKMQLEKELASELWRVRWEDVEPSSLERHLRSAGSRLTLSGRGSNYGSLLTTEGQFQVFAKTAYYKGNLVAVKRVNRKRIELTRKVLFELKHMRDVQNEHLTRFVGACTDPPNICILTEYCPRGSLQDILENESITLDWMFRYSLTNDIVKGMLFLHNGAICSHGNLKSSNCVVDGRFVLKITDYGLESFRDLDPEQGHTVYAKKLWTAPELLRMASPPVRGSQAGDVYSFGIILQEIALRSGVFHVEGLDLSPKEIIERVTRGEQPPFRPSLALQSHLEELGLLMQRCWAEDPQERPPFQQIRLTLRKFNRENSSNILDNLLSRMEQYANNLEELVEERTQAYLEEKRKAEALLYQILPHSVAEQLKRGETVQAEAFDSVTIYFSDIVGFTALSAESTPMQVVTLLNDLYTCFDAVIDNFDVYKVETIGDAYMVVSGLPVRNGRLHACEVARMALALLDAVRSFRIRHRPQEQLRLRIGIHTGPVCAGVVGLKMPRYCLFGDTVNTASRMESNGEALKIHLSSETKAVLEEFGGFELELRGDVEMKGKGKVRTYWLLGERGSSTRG
Nature of the assay: cGMP generation in HEK293 cells transfected with human GC-A receptor. The format is cell-based. The note with it: vs vehicle; for cGMP generation: HEK293 cells overexpressing human GC-A, 10^-8, 10^-7, 10^-6 M, 10 minutes. The source says:
(§1) cGMP Generation in HEK293 Cells Transfected with Human GC-B or GC-A Receptor In Vitro: HEK293 cells were stably transfected with either human GC-B or GC-A (cDNA clones from Origene, Rockville, MD) using LIPOFECTAMINE® (Invitrogen, Grand Island, NY). Receptors overexpression was verified with immunofluorescence and western blotting. GC-B/-A transfected HEK293 cells were maintained in Dulbecco's modified Eagle's medium supplemented with 10% fetal bovine serum, 100 U/mL penicillin, 100 U/mL streptomycin, and 250 μg/mL G418. Cells were seeded in 48-well plates and cultured overnight to reach 80-90% confluency. The treatment buffer that includes, Hank's Balanced Salt Solution (HBSS) including 0.1% BSA, 2 mM HEPES and 0.5 mM 3-isobutyl-1-methylzanthine (IBMX—a non-specific phosphodiesterase inhibitor, Sigma, St. Louis, MO), was used in all experiments. HEK293 cells received treatment buffer (vehicle) only was used as a negative control and ANP (10^−8M) was used as a positive control in HEK293 GC-A cells and CNP (10^−8 M) was used as a positive control in HEK293 GC-B cells. Concentrations of CD-NP, CRRL-404, CRRL-405, CRRL-407 or CRRL=408 (10^−8, 10^−7, and 10^−6 M) in HBSS were incubated with HEK293 transfected GC-B or GC-A cells for 10 minutes. After treatment, all cells were washed with phosphate buffered solution (PBS) once and lysed with 0.1M HCl. Intracellular cGMP was measured in the lysate using a commercial cGMP ELISA kit (Enzo Life Sciences, Farmingdale, NY) as instructed by the manufacturer.
(§2) cGMP Assay: The ELISA plate was coated in neutralizing solution (50 μL), prior to addition of samples and standards. Cell lysates (100 μL) and standards (100 μL), in 0.1M HCL, were incubated with cGMP conjugate (50 μL) and cGMP antibody (50 μL) at room temperature for 2 hours, 500 rpm. The plates were washed 4 times and 200 μL of pNPP substrate was added in each well and incubated for 1 hour at room temperature. The reaction was stopped by adding stop solution and absorbance was read at 405 nm and corrected for plate imperfections at 570 nm using SpectramaxM2. Standard curve was generated using the Softmaxpro software and unknown concentrations were extrapolated based on the standard curve. Samples exceeding the standard curve were diluted as needed in 0.1M HCl and corresponding dilution factors were applied to extrapolate final concentrations. The standard curve range is from 0.8 pmol/mL-500 pmol/mL. The % CV at EC50 is 6.6%.

The next assay addresses T2, human GC-B (Homo sapiens, UniProt P20594).
T2 construct: host or cells: HEK293
T2 sequence (P20594 23-1047): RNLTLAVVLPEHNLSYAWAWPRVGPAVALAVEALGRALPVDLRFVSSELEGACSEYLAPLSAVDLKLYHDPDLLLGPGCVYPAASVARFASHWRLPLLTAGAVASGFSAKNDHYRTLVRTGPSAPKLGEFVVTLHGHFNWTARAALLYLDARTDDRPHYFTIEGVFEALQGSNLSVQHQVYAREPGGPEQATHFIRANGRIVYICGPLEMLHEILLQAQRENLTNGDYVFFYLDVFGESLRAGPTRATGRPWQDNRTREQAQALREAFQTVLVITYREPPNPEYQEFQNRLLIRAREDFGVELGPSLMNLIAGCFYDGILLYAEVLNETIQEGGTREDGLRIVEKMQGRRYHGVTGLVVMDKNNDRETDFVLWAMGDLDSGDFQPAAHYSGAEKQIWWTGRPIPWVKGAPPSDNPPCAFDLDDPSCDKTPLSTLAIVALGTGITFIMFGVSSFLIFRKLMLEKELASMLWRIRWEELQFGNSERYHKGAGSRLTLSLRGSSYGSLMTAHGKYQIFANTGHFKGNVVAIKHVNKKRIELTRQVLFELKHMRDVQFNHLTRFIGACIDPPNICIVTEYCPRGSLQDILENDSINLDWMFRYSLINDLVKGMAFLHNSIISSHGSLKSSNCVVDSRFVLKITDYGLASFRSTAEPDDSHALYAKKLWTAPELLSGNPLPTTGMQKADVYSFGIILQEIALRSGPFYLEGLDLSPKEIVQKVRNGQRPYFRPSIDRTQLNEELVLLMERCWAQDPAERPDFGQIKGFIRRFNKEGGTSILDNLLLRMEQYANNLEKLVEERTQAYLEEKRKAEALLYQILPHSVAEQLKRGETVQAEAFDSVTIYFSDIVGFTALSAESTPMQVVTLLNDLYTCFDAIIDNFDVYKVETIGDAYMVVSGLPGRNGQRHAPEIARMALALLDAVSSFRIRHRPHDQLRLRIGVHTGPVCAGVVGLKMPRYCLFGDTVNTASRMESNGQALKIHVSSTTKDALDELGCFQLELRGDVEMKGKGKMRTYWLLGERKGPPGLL
The assay can be described thus: cGMP generation in HEK293 cells transfected with human GC-B receptor. As to conditions: vs vehicle; for cGMP generation: HEK293 cells overexpressing human GC-B, 10^-8, 10^-7, 10^-6 M, 10 minutes. The assay is classed as cell-based.
From the text: as §1, §2

Assay [1] concerns human renal fibroblasts (HRFs). The assay can be described thus: cGMP generation in human primary renal fibroblasts. The format is cell-based. The note with it: 10^-8, 10^-7, 10^-6 M, 10 minutes, vs vehicle. On the procedure:
(§3) cGMP Generation in Human Primary Renal Cells: Human primary renal fibroblasts (HRFs, Cell Biologics, Chicago, IL) and human renal proximal tubular epithelial cells (HRPTCs, ScienCell Research Laboratories, Carlsbad, CA) were maintained and sub-cultured according to the manufacturer's protocols. Briefly, the cells were grown in 6-well plates until 80% confluency and were then treated with treatment buffer (vehicle; HBSS including 0.1% BSA, 2 mM HEPES and 0.5 mM IBMX) alone or with concentrations of CRRL-408 (10^−8, 10^−7 and 10^−6 M) for 10 minutes. Cells were washed with PBS once and lysed with 0.1M HCl. Intracellular cGMP was measured in the lysate using a commercial cGMP ELISA kit (Enzo Life Sciences, Farmingdale, NY) as instructed by the manufacturer described below.
(§4) cGMP Assay: The ELISA plate was coated in neutralizing solution (50 μL), prior to addition of samples and standards. Cell lysates (100 μL) and standards (100 μL), in 0.1M HCL, were incubated with cGMP conjugate (50 μL) and cGMP antibody (50 μL) at room temperature for 2 hours, 500 rpm. The plates were washed 4 times and 200 μL of pNPP substrate was added in each well and incubated for 1 hour at room temperature. The reaction was stopped by adding stop solution and absorbance was read at 405 nm and corrected for plate imperfections at 570 nm using SpectramaxM2. […]

The subject of assay [2] is human renal proximal tubular cells (HRPTCs). The assay can be described thus: cGMP generation in human renal proximal tubular epithelial cells. The assay is classed as cell-based. The note with it: 10^-8, 10^-7, 10^-6 M, 10 minutes, vs vehicle. On the procedure: as §3, §4
The next assay concerns normal rats. The assay can be described thus: Acute IV infusion in vivo study, plasma and urinary cGMP. As to conditions: IV infusion 2.12 μg/kg/min, vs vehicle (saline). Details: species or system rat. On the procedure:
Acute IV Infusion In Vivo Study: the cGMP generating actions of 2.12 μg/kg/minute dose CRRL-408 or vehicle (0.9% normal saline) [n=4/group] was investigated in normal rats (approximately 2 months old; 200-250 grams; Envigo, East Millstone, NJ). Studies were performed in accordance with the Animal Welfare Act and with approval of the Mayo Clinic Institutional Animal Care and Use Committee.
Rats were anesthetized with isoflurane (2-3% in oxygen) and were subjected to vessel and bladder cannulation for peptide/vehicle infusion, blood sampling and urine collection. A polyethylene (PE)-50 tube catheter was placed into the jugular vein for CRRL-408/vehicle intravenous (IV) infusion. The carotid artery was cannulated with a PE-50 tube catheter for blood sampling. The bladder was accessed and cannulated with a PE-50 tube catheter for passive urine collection. After completion of the above procedural set up, a 30 minute equilibration period was performed that included continuous IV saline infusion. After the 30 minute equilibration period the saline infusion was replaced by a continuous IV infusion (75 min including a 15 minute lead-in period) of 2.12 μg/kg/minute dose of CRRL-408 or vehicle. The infusion rate was weight adjusted and calculated as follows: rat weight (grams)*0.7/60/100 mL/minute. […]

Turning to “KKGLSKGCFGLKLDRIGSMSGLGCPSLRDPRPNAPSTSA [CRRL-404]”, the cGMP generation entry at human GC-A and at human GC-B was “stimulated cGMP generation” each time.

With “KYKGANKKGLSKGCFGLKLDRIGSMSGLGCPSLRDPRPNAPSTSA [CRRL-408]”, the cGMP generation result on human GC-A and at human GC-B was “stimulated cGMP generation” throughout. Further, the “intracellular cGMP levels” value in assay [1] and in assay [2] was “increased intracellular cGMP levels in a dose dependent manner” each time. The “plasma cGMP” value in the assay on normal rats is recorded as “significantly elevated”. The “urinary cGMP” value with normal rats was “significantly elevated”.

As to “KGANKKGLSKGCFGLKLDRIGSMSGLGCPSLRDPRPNAPSTSA [CRRL-407]”, the cGMP generation result at human GC-A and on human GC-B was “stimulated cGMP generation” in each case.

“ANKKGLSKGCFGLKLDRIGSMSGLGCPSLRDPRPNAPSTSA [CRRL-405]”: the cGMP generation entry at human GC-A and on human GC-B was “stimulated cGMP generation” each time.

In the case of “CNP: C-type natriuretic peptide, used as a positive control in HEK293 GC-B cells [reference compound]”, the “cGMP generation (positive control)” value with human GC-B (HEK293 GC-B cells, 10^-8 M) is on record as “significant cGMP generation response”.

For “GLSKGCFGLKLDRIGSMSGLGCPSLRDPRPNAP STSA [CD-NP, reference compound]”, the cGMP generation result at human GC-A and at human GC-B was “stimulated cGMP generation” throughout.

In the case of “ANP: natriuretic peptide used as a positive control in HEK293 GC-A cells [reference compound]”, in the assay with human GC-A (HEK293 GC-A cells, 10^-8 M), the “cGMP generation (positive control)” value is “significant cGMP generation response”.
